Laboratory results taken from the NIST ThermoML archive (doi:10.1021/acs.jced.9b00536).

Assay: wn = mass fraction of the nth substance listed
Conditions: 100 kPa, Liquid, Vibrating tube method

[Na+].[OH-] [sodium hydroxide] + O
mass density [kg/m3]
Conditions | 303.15 K | 313.15 K | 323.15 K | 333.15 K | 343.15 K | 353.15 K
w1 = 0.2 | 1213.8 | 1208 | 1202.1 | 1196.1 | 1190 | 1184.4
w1 = 0.21 | 1223.5 | 1219 | 1213 | 1206.8 | 1200.5 | 1194
w1 = 0.22 | 1236.2 | 1230.3 | 1224.3 | 1218.1 | 1212 | 1206.4
w1 = 0.23 | 1246.1 | 1240.2 | 1234.1 | 1227.9 | 1221.8 | 1216.2
w1 = 0.24 | 1256.6 | 1250.6 | 1244.4 | 1238.3 | 1232.2 | 1226.7
w1 = 0.25 | 1268 | 1262 | 1256 | 1249.5 | 1243 | 1236.5
w1 = 0.26 | 1279.4 | 1273.3 | 1267.1 | 1260.8 | 1254.6 | 1249
w1 = 0.27 | 1289.2 | 1283 | 1276.7 | 1270.3 | 1264.1 | 1258.3
w1 = 0.28 | 1299 | 1293.7 | 1287.4 | 1281 | 1274.7 | 1269.1
w1 = 0.29 | 1311 | 1304.5 | 1298.5 | 1292 | 1285.5 | 1278.5
w1 = 0.3 | 1321.7 | 1315.4 | 1308.9 | 1302.4 | 1295.9 | 1289.9
w1 = 0.31 | 1330.9 | 1324.5 | 1318 | 1311.4 | 1304.9 | 1298.7
w1 = 0.32 | 1343.4 | 1337 | 1330.4 | 1323.8 | 1317.2 | 1311.1
w1 = 0.33 | 1353.5 | 1347 | 1340.4 | 1333.7 | 1327.1 | 1321
w1 = 0.34 | 1364.3 | 1357.8 | 1351.1 | 1344.4 | 1337.8 | 1331.6
w1 = 0.35 | 1372.5 | 1365.9 | 1359.2 | 1352.5 | 1345.9 | 1339.8
w1 = 0.36 | 1381.8 | 1375.5 | 1369 | 1362.9 | 1356.8 | 1349.8
w1 = 0.37 | 1393.6 | 1386.8 | 1380 | 1373.2 | 1366.5 | 1360.2
w1 = 0.38 | 1403.3 | 1396.5 | 1389.6 | 1382.8 | 1376.1 | 1369.9
w1 = 0.39 | 1413.5 | 1406.5 | 1400 | 1393 | 1386 | 1379.5
w1 = 0.4 | 1423.3 | 1416.3 | 1409.3 | 1402.4 | 1395.6 | 1389.6
w1 = 0.41 | 1432.9 | 1425.9 | 1418.9 | 1412 | 1405.1 | 1398.7
w1 = 0.42 | 1443.2 | 1436.2 | 1429.2 | 1422.2 | 1415.4 | 1409
w1 = 0.43 | 1452.9 | 1445.8 | 1438.8 | 1431.8 | 1425 | 1418.6
w1 = 0.44 | 1460.9 | 1453.8 | 1446.7 | 1439.7 | 1432.8 | 1426.3
w1 = 0.45 | 1470.7 | 1463.5 | 1456.5 | 1449.5 | 1442.6 | 1436.2
w1 = 0.46 | 1479.6 | 1472.7 | 1465.9 | 1459 | 1451.5 | 1445.2
w1 = 0.47 | 1489.7 | 1482.5 | 1475.3 | 1468.3 | 1461.4 | 1454.8
w1 = 0.48 | 1499.9 | 1492.6 | 1485.4 | 1478.3 | 1471.4 | 1465
w1 = 0.49 | 1509.4 | 1502.1 | 1494.9 | 1487.9 | 1481 | 1474.6
w1 = 0.5 | 1518.4 | 1511.1 | 1503.9 | 1496.9 | 1490 | 1483.6
